Assays:
[1] = target: T1, protein-protein interaction between SOS1 and KRAS-G12D (Homo sapiens, UniProt Q07889); assay: HTRF Based Protein-Protein Interaction Assay; format: binding; conditions: HTRF; GST-SOS1 2.5 nM, KRAS-G12D 100 nM, GDP 10 uM; read-out: IC50 value, inhibition of SOS1/KRAS-G12D protein-protein interaction
T1 construct: The purified GST-SOS1 catalytic domain (residues 564-1049) was first diluted in assay buffer; made in house; host or cells: E. coli BL21 (DE3) for SOS1; E. coli BL21 carrying a BirA plasmid for KRAS-G12D
T1 sequence (Q07889 564-1049): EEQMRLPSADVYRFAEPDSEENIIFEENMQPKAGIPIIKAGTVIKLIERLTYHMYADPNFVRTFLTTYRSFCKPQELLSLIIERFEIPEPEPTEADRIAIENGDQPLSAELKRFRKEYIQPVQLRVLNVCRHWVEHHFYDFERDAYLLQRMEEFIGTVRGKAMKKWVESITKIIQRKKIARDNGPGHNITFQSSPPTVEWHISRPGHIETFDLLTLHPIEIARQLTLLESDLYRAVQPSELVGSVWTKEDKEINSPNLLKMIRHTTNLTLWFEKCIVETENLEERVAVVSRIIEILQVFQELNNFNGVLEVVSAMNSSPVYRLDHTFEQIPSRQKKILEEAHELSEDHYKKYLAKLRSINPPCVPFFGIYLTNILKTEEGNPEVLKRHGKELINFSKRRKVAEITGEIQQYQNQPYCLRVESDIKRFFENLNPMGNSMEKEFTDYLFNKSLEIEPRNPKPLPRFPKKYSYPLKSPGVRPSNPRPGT
From the text: A KRAS-G12D and SOS1 binding/interaction assay was designed to measure the interaction between KRAS-G12D and SOS1 proteins. Utilizing HTRF (Homogeneous Time-Resolved Fluorescence) technology, the assay enabled simple and rapid characterization of compound and protein interaction in a high throughput format. This assay was used to examine potency of the compounds in inhibiting the protein-protein interaction between SOS1 and KRAS-G12D. […] Low IC50 values are indicative of high potency of the SOS1 inhibitor compound to disrupt SOS1 and Kras-G12D interaction.
Protein Expression and Purification. The corresponding gene sequence to human SOS1 (residues 564-1049, UniProt ID: Q07889; SEQ ID NO: 2) was synthesized and fused in frame with GST expression vector. After the desired sequence was confirmed, plasmid containing the sequence was transformed into the E. coli strain BL21 (DE3). Bacteria were growing at 37° C. in LB media containing 50 μg/ml Kanamycin to give OD600 of 0.6-0.8. Then 0.2 mM IPTG was added to induce protein expression for 16 hours at 17° C. Bacteria were harvested by centrifugation and stored at −80° C. Bacteria pellets were resuspended in lysis buffer (25 mM Tris-HCl, 500 mM NaCl, 2 mM DTT, 2.3% sucrose, 0.3% dextran-10, 1 mM PMSF, pH 7.5) and lysed using high-pressure homogenizer. The lysate was cleared by centrifugation for 30 minutes (12000 rpm at 4° C.). The supernatant containing GST-SOS1 fragment was purified sequentially through Glutathione column and gel filtration (Hiload 16/600 Superdex […] column, Cytiva). The purified GST-SOS1 fragment was confirmed by SDS-PAGE and stored in 25 mM Tris-HCl, 100 mM NaCl, 1 mM DTT, 2.3% sucrose, 0.3% dextran-10, pH 7.5 at −80° C.
Kras-G12D Protein Purification. The sequence corresponding to human KRAS-G12D (residues 1-169, UniProt P01116-2; SEQ ID NO: 1) was synthesized and fused in frame with His-AVI-TEV vector. The plasmid was transformed into the E. coli strain BL21 (containing a plasmid that can generate BirA enzyme). Bacteria were growing at 37° C. in TB media containing 100 μg/ml ampicillin and 50 μg/ml Kanamycin to give OD600 of 0.6-0.8. The 0.5 mM IPTG and 50 mg/l biotin were added to induce protein expression for 16 hours at 25° C. Bacteria were harvested by centrifugation and stored at −80° C. Bacteria pellets were re-suspended in lysis buffer (20 mM Tris-HCl, 500 mM NaCl, 5 mM MgCl2, 2 mM […], 5% glycerol, pH 8.0) and lysed using high-pressure homogenizer. The lysate was cleared by centrifugation for 30 minutes (12000 rpm at 4° C.). The supernatant containing HIS-AVI-TEV-KRAS-G12D fragment was purified sequentially through Ni-NTA column (SMART), Streptactin column (SMART), and gel filtration (Hiload 16/600 Superdex 75 pg, GE). The purified HIS-AVI-TEV-KRAS-G12D fragment was confirmed by SDS-PAGE and stored in 50 mM HEPES-NaOH, 100 mM NaCl, 1 mM DTT, 5 mM MgCl2, pH 7.5 at −80° C.
Protein-Protein Interaction Assay. An assay buffer containing 50 mM HEPES, pH 7.5, 50 mM NaCl, 0.01% Brij-35, 1 mM TCEP, 0.1% BSA was prepared, and concentration series of test compounds were generated spanning from 0.5 nM to 10 μM over 10 3-fold serial dilutions in a 384-well assay plate at a volume of 20 pL. The purified GST-SOS1 catalytic domain (residues 564-1049) was first diluted in assay buffer and 5 μl of SOS1 (final concentration 2.5 nM in assay mixture) was directly dispensed into compound plates. After a spin down at 1000 RPM for 30 seconds, the SOS1/compound mixture was incubated at 25° C. for 15 minutes to allow the reaction between SOS1 and the compound. A KRAS-G12D mixture was prepared by incubation of avi-tagged Kras-G12D (residue 1-169) and GDP in assay buffer containing 10 mM MgCl2 at room temperature for 10 minutes. A KRAS-G12D and GDP mixture (5 μL) was added to the assay plate (final KRAS-G12D was 100 nM and GDP was 10 uM). The plate was centrifuged at 1000 rpm for 30 sec and incubated at 25° C. for 60 minutes. […]

[2] = test system: cellular pERK in NCI-H1975 cells (EGFR/L858R-T790M); assay: pERK Potency Assay; format: cell-based; conditions: Homo sapiens, 1 hour incubation, Western blot, read-out: IC50 value, cellular pERK level
From the text: The purpose of this assay is to measure the ability of test compounds to inhibit SOS1 function in cells. SOS1 activates RAS proteins by catalyzing the conversion of RAS-GDP to RAS-GTP in response to receptor tyrosine kinase activation. Activation of RAS induces a sequence of cellular signaling events that results in increased phosphorylation of ERK at Threonine 202 and Tyrosine 204 (pERK). The procedure described below measured the level of cellular pERK in response to test compounds in NCI-H1975 cells (EGFR/L858R-T790M).
NCI-H1975 cells were grown and maintained using media and procedures recommended by the ATCC. On the day prior to compound addition, cells were plated in 24-well cell culture plates (0.9 ml/well) and grown overnight in a 37° C., 5% CO2 incubator. Test compounds were prepared with 3-fold serial dilutions in DMSO, with a top concentration of 10 mM. On the day of the assay, 100 uL of each test compound diluted at 1:100 in media was added to each well of cell culture plate with final concentrations of the compound spanning 0.5 nM to 10 uM. After the compound was added, the cells were incubated for 1 hour at 37° C., 5% CO2. Following incubation, culture medium was removed, and the cells were washed once with phosphate buffered saline and lysed with lysis buffer (20 mM Tris-HCl, pH 7.5, 150 mM NaCl, 1 mM EDTA, 1 mM EGTA, 0.8% NP-40 plus 2× protease and phosphatase inhibitors). Cellular pERK level was determined using the Western blot analysis and quantified with Liqor software. Signal from Western blot was plotted and IC50 values were determined by fitting a 4-parameter sigmoidal concentration response model.

Compound | IC50 [1] | IC50 [2]
C#C[C@@H](Nc1nc(C)nc2cc(=O)n(C3(C(F)F)CC3)cc12)c1cccc(C(F)F)c1C [Compound 1, (R)-4-((1-(3-(difluoromethyl)-2-methylphenyl)prop-2-yn-1-yl)amino)-6-(1-(difluoromethyl)cyclopropyl)-2-methylpyrido[4,3-d]pyrimidin-7(6H)-one] | < 100 nM | 100 to 500 nM
C#C[C@@H](Nc1nc(C)nc2cc(=O)n(C3(C(F)F)CC3)cc12)c1cccc(C(F)F)c1F [Compound 24, (R)-4-((1-(3-(difluoromethyl)-2-fluorophenyl)prop-2-yn-1-yl)amino)-6-(1-(difluoromethyl)cyclopropyl)-2-methylpyrido[4,3-d]pyrimidin-7(6H)-one] | < 100 nM | 100 to 500 nM
C#C[C@@H](Nc1nc(C)nc2cc(=O)n(C3(C(F)F)CC3)cc12)c1cccc(Br)c1F [Compound 41, (R)-4-((1-(3-bromo-2-fluorophenyl)prop-2-yn-1-yl)amino)-6-(1-(difluoromethyl)cyclopropyl)-2-methylpyrido[4,3-d]pyrimidin-7(6H)-one] | 100 to 200 nM | 
C#C[C@@H](Nc1nc(C)nc2cc(=O)n(C3(C(F)F)CC3)cc12)c1cccc(C#N)c1F [Compound 42, (R)-3-(1-((6-(1-(difluoromethyl)cyclopropyl)-2-methyl-7-oxo-6,7-dihydropyrido[4,3-d]pyrimidin-4-yl)amino)prop-2-yn-1-yl)-2-fluorobenzonitrile] | < 100 nM | 
C#C[C@@H](Nc1ncnc2c1cc(C1(F)CCN(C(C)=O)C1)c(=O)n2C)c1cccc(C(F)F)c1F (stereo partly drawn) [Compound 45, 6-(1-acetyl-3-fluoropyrrolidin-3-yl)-4-{[(1R)-1-[3-(difluoromethyl)-2-fluorophenyl]prop-2-yn-1-yl]amino}-8-methyl-7H,8H-pyrido[2,3-d]pyrimidin-7-one] | 100 to 200 nM | < 100 nM
C#C[C@@H](Nc1ncnc2c1cc(C1(F)CCN(C(C)=O)CC1)c(=O)n2C)c1cccc(C(F)F)c1F [Compound 47, 6-(1-acetyl-4-fluoropiperidin-4-yl)-4-{[(1R)-1-[3-(difluoromethyl)-2-fluorophenyl]prop-2-yn-1-yl]amino}-8-methyl-7H,8H-pyrido[2,3-d]pyrimidin-7-one] | < 100 nM | 
[2H]C([2H])([2H])n1c(=O)c(C2(OC)CCN(C(C)=O)CC2)cc2c(N[C@H](C#C)c3cccc(C(F)(F)F)c3C)nc(C)nc21 [Compound 50, 6-(1-acetyl-4-methoxypiperidin-4-yl)-8-(^2H3)methyl-2-methyl-4-{[(1R)-1-[2-methyl-3-(trifluoromethyl)phenyl]prop-2-yn-1-yl]amino}-7H,8H-pyrido[2,3-d]pyrimidin-7-one] | 100 to 200 nM | < 100 nM
[2H]C([2H])([2H])n1c(=O)c(C2(O)CCN(C(C)=O)CC2)cc2c(N[C@H](C#C)c3cccc(C(F)(F)F)c3C)nc(C)nc21 [Compound 51, 6-(1-acetyl-4-hydroxypiperidin-4-yl)-8-(^2H3)methyl-2-methyl-4-{[(1R)-1-[2-methyl-3-(trifluoromethyl)phenyl]prop-2-yn-1-yl]amino}-7H,8H-pyrido[2,3-d]pyrimidin-7-one] | 100 to 200 nM | < 100 nM
[2H]C([2H])([2H])n1c(=O)c(C2=CCN(C(C)=O)CC2)cc2c(N[C@H](C#C)c3cccc(C(F)(F)F)c3C)nc(C)nc21 [Compound 52, 6-(1-acetyl-1,2,3,6-tetrahydropyridin-4-yl)-8-(^2H3)methyl-2-methyl-4-{[(1R)-1-[2-methyl-3-(trifluoromethyl)phenyl]prop-2-yn-1-yl]amino}-7H,8H-pyrido[2,3-d]pyrimidin-7-one] |  | 100 to 500 nM
[2H]C([2H])([2H])n1c(=O)c(C2(F)CCN(C(C)=O)CC2)cc2c(N[C@H](C#C)c3cccc(C(F)(F)F)c3C)nc(C)nc21 [Compound 53] | 100 to 200 nM | < 100 nM
C#C[C@@H](Nc1ncnc2c1cc(C1(N)CCOCC1)c(=O)n2C)c1cccc(C(F)(F)F)c1C [Compound 60] |  | < 100 nM
C#C[C@@H](Nc1ncnc2c1cc(C1(NC(C)=O)CC3CCC(C1)O3)c(=O)n2C)c1cccc(C(F)F)c1F (stereo partly drawn) [Compound 61, N-(3(4-(((R)-1-3-(difluoromethyl)-2-fluorophenyl)prop-2-yn-1-yl)amino-8-methyl-7-oxo-7,8-dihydorpyrido[2,3-d]pyrimidin-6-yl)-8-oxabicyclo[3.2.1]octan-3-yl)acetamide] |  | 100 to 500 nM
C#C[C@@H](Nc1ncnc2c1cc(C1=CC3CCC(C1)O3)c(=O)n2C)c1cccc(C(F)F)c1F (stereo partly drawn) [Compound 62] |  | 100 to 500 nM
C#C[C@@H](Nc1ncnc2c1cc(C1(O)CC3CCC(C1)N3C(C)=O)c(=O)n2C)c1cccc(C(F)F)c1F (stereo partly drawn) [Compound 63] |  | 100 to 500 nM
C#C[C@@H](Nc1ncnc2c1cc(C1(NC(C)=O)CC3CCC(C1)N3C(C)=O)c(=O)n2C)c1cccc(C(F)F)c1F (stereo partly drawn) [Compound 64] |  | 100 to 500 nM

— patent publication US20220324862A1, “PYRIDOPYRIMIDINONE COMPOUNDS” (Acerand Therapeutics (USA) Limited, priority 2021, published 2022)
